Results published in the NIST ThermoML archive (doi:10.1016/j.tca.2011.12.010).
Numbers after ± are expanded uncertainties.

Test: molar heat capacity at constant pressure
Conditions: 101.33 kPa, Crystal 2, Small sample (50 mg) DSC

O=[N+]([O-])[O-].O=[N+]([O-])[O-].O=[N+]([O-])[O-].O=[N+]([O-])[O-].[K+].[K+].[Mg+2] [bis-potassium magnesium nitrate]
Conditions	molar heat capacity at constant pressure [J/K/mol]
298.15 K	308 ± 6.2
299 K	308.7 ± 6.2
300 K	309.8 ± 6.2
301 K	310.5 ± 6.2
302 K	310.8 ± 6.2
303 K	311.5 ± 6.2
304 K	312.2 ± 6.2
305 K	312.9 ± 6.3
306 K	314 ± 6.3
307 K	314.7 ± 6.3
308 K	315.7 ± 6.3
309 K	316.4 ± 6.3
310 K	317.5 ± 6.4
311 K	318.5 ± 6.4
312 K	319.2 ± 6.4
313 K	319.9 ± 6.4
314 K	322 ± 6.4
315 K	322 ± 6.4
316 K	322.7 ± 6.5
317 K	323.8 ± 6.5
318 K	324.8 ± 6.5
319 K	325.9 ± 6.5
320 K	326.9 ± 6.5
321 K	328 ± 6.6
325 K	329 ± 6.6
326 K	328 ± 6.6
327 K	329.7 ± 6.6
328 K	330.4 ± 6.6
329 K	331.1 ± 6.6
330 K	331.1 ± 6.6
331 K	331.8 ± 6.6
332 K	332.9 ± 6.7
333 K	334.3 ± 6.7
334 K	334.3 ± 6.7
335 K	334.6 ± 6.7
336 K	335.3 ± 6.7
337 K	335.7 ± 6.7
338 K	336.4 ± 6.7
339 K	336.7 ± 6.7
340 K	337.1 ± 6.7
341 K	338.1 ± 6.8
342 K	338.5 ± 6.8
343 K	338.8 ± 6.8
344 K	339.9 ± 6.8
345 K	341.3 ± 6.8
346 K	342 ± 6.8
347 K	341.6 ± 6.8
348 K	340.6 ± 6.8
349 K	340.6 ± 6.8
350 K	340.9 ± 6.8
351 K	341.3 ± 6.8
352 K	342 ± 6.8
353 K	342.7 ± 6.9
354 K	343.4 ± 6.9
355 K	344.1 ± 6.9
356 K	344.8 ± 6.9
357 K	345.5 ± 6.9
358 K	346.2 ± 6.9
359 K	346.9 ± 6.9
360 K	347.6 ± 7
361 K	348.3 ± 7
362 K	349.3 ± 7
363 K	350.4 ± 7
364 K	351.4 ± 7
365 K	352.5 ± 7.1
366 K	353.5 ± 7.1
367 K	354.6 ± 7.1
368 K	355.3 ± 7.1
369 K	356 ± 7.1
370 K	356.7 ± 7.1
371 K	357.7 ± 7.2
372 K	357.8 ± 7.2
373 K	358.6 ± 7.2
374 K	360.4 ± 7.2
375 K	362.7 ± 7.3
376 K	367.5 ± 7.4
377 K	372.4 ± 7.4
378 K	374.9 ± 7.5
379 K	375.6 ± 7.5
380 K	375.8 ± 7.5
381 K	376 ± 7.5
